Source: patent US20210355166A1, “[…] METHODS OF USE THEREOF” (priority 2018, published 2021)
Entries after “also recorded” stand apart in the source; their conditions may differ. Where two headings read alike, the source gives them in different places. Marks after values point to notes of the source that are not given here. Non-standard residues stand in square brackets, D forms with d. No end group written: not given here. *: point of attachment. β‑Lac = OC[C@H]1O[C@@H](O[C@H]2[C@H](O)[C@@H](O)[C@H](*)O[C@@H]2CO)[C@H](O)[C@@H](O)[C@H]1O; Dmt = Cc1cc(O)cc(C)c1C[C@H](N)C(=O)O

Key:
C57BL/6 mice = test: Nociception (analgesia) testing on 54 C hotplate; type: in vivo, mouse; settings: for analgesic activity after systemic administration: 54° C. hotplate
Procedure: Experiments were performed under the guidelines of the Australian code of practice for the care and use of animals for scientific purposes (National Health and Medical Research Council, Australia, 7th Edition). Great care was taken to minimise animal suffering during these experiments and to reduce the number of animals used. […] Food and water was available ad libitum. Mice were given at least 7 days to habituate to housing facilities prior to handling, and handled by the experimenter for 4 days prior to testing. […] The experimenter was blind to all drugs tested. Animals were tested on a 54° C. hotplate, with a maximum cut-off time of 20 seconds to prevent tissue damage. Endpoints were hindpaw lick, hindpaw flutter or jump. […] The percentage of maximal possible effects (% MPE) were calculated as follows: % MPE=(test latency−baseline latency)/(cutoff latency−baseline latency)×100%. The cut-off latency was 20 seconds. Significant differences were assessed with a two-way ANOVA and Tukey's post hoc multiple comparisons test. […] Doses were transformed to the logarithm of μmol/kg. A two-way ANOVA was used to compare data at equimolar doses.

MOPr [1] = target: T1, MOPr (Mus musculus, UniProt P42866); test: GIRK conductance in MOPr expressing AtT20 cells without fractional inactivation of MOPr; type: cell-based; set-up: expressed in transfected cells
T1 sequence (P42866 whole entry): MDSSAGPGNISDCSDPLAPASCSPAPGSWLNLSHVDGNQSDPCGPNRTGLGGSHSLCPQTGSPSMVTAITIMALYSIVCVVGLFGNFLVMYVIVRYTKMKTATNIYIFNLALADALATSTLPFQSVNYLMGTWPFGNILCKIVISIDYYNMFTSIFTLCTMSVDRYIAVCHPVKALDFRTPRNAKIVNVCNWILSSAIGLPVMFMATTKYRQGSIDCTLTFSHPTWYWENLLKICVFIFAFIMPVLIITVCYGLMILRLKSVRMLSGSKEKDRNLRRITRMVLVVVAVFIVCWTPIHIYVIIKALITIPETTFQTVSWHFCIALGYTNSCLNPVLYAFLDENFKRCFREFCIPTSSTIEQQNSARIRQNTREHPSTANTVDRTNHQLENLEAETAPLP
Procedure: The recording electrodes were first front filled with this internal solution and then backfilled with the same solution containing 200 μg/ml amphotericin B (in 0.8% DMSO). […] Liquid junction potential was calculated to be +16 mV and was adjusted before the start of each recording. […] Currents were sampled at 100 Hz, low pass filtered at 50 Hz and recorded on hard disk for later analyses. IGIRK was recorded using a 200 ms voltage step to −120 mV from a holding potential of −60 mV delivered every 2 s. Drugs were perfused directly onto cells using a ValveLink 8.2 pressurized pinch valve perfusion system (AutoMate Scientific, USA).

MOPr [2] = target: T1, MOPr; type: cell-based; set-up: expressed in transfected cells; settings: for internalisation signal in GRK2 positive cells: GRK2-YFP and β-arrestin 2-HA overexpressed
Procedure: (§1) Endocytosis assay: Receptor internalization was quantified using a ratiometric staining of membrane and internalized receptors. […] Cells were then incubated for an additional 30 min with indicated agonist at 37° C. To unbind the M1 anti-FLAG antibody from the surface receptors, cells were quickly washed three times with ice-cold PBS lacking Mg^2+ and Ca^2+ and supplemented with 0.04% EDTA (pH 7.4).
Only YFP positive cells were analyzed for internalization.
See also FIGS. 11C and 11D.

MOPr [3] = target: T1, MOPr; type: cell-based; set-up: expressed in transfected cells; host or cells: AtT20 cells, transient co-transfection
Procedure: Arrestin recruitment: Agonist-induced recruitment of β-arrestin2 to MOPr was examined using a BRET-based approach. AtT20 cells were plated in 10-cm dishes and co-transfected with MOPr C-terminally tagged with Rluc8 (MOPr-RLuc8), β-arrestin2-YFP and GRK2 (1 μg, 4 μg and 2 μg, respectively). 24 h after transfection wells were replated into white opaque 96-well plates (CulturPlate, PerkinElmer) and allowed to adhere overnight. Cells were washed with Hank's Balanced Salt Solution (HBSS) and equilibrated in HBSS for 30 min at 37° C. prior to the experiment. Coelenterazine h was added to a final concentration of 5 μM 10 min before dual fluorescence/luminescence measurement in a LUMIstar Omega plate reader (BMG LabTech). Baseline BRET was measured for 30 sec prior to addition of the indicated ligand. The BRET signal was calculated as the ratio of light emitted at 530 nm by YFP over the light emitted at 430 nm by Renilla luciferase 8 (RLuc8).

MOPr [4] = target: T2, MOPr (Rattus norvegicus, UniProt P33535); test: Patch-clamp recordings of GIRK currents in rat locus coeruleus (LC) neurons; type: cell-based
T2 construct: which natively express MOPr but not DOPr or KOPr; from tissue; host or cells: brain slices with locus coeruleus neurons, male Sprague Dawley rats
T2 sequence (P33535 whole entry): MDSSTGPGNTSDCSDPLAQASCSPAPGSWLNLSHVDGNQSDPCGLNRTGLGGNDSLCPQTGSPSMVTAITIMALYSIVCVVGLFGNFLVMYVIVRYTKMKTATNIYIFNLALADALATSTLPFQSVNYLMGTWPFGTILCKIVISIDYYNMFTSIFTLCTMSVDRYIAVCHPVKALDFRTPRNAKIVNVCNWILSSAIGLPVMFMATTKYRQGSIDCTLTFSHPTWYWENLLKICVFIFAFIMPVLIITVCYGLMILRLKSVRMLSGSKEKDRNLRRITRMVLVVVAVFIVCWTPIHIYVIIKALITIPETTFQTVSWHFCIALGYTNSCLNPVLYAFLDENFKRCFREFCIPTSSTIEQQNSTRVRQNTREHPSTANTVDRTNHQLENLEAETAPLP
Procedure: Briefly, rats were anesthetized with isoflurane and decapitated. The brain was dissected and mounted in a vibratome chamber (Leica biosystem, VT100, Wetzlar, Germany) in order to prepare horizontal brain slices (280 μm). […] Slices were incubated in warm oxygenated ACSF for at least 30 min before recording. Slices were transferred to the recording chamber while warm ACSF (34° C.) was superfused at a rate of ˜2 mL/min. Whole-cell voltage-clamp recordings were acquired from LC neurons with Multiclamp 700B amplifier (Molecular Devices, CA, USA) at holding potential of −60 mV. […] Continuous current recordings were collected in chart mode at 500 Hz and filtered at 20-50 Hz using Axograph X (Axograph Scientific, Sydney, Australia). Series resistance monitored throughout the experiments and remained <15 MΩ; otherwise the data were discarded. Outward current was measured as the difference between baseline current and peak current of drug application.

mouse MOPr (mMOPr) = target: T3, mouse MOPr (mMOPr) (Mus musculus, UniProt P42866); type: cell-based; settings: for GIRK (80% knockdown) log(tau/KA): operational model fit
T3 construct: expressed in transfected cells
T3 sequence (P42866 whole entry): as the sequence (P42866 whole entry) above

MOPr [5] = target: T1, MOPr; test: MOPr internalisation (endocytosis assay) in AtT20 cells; type: cell-based; set-up: expressed in transfected cells
Procedure: (§2) Imaging parameters including laser intensity, photomultiplier tube (PMT) voltage and offset remained constant for each experiment. Mean fluorescence intensity was measured using ImageJ software to calculate mean gray value of an area defined […] a single cell. Each experiment was normalized to the mean of untreated cells as 0% and the mean of cells treated with saturating concentrations of Met-enk (30 μM) as 100%.
as §1, with “MOPr internalisation was assessed immunocytochemically after 30 minutes of agonist treatment (FIGS. 8, 9). […] Endocytosis” for “Endocytosis”

[6] = target: human µ-opioid receptor (hMOPr), human recombinant MOPr expressed in HEK-293 cells (human) (UniProt P35372); test: cell-based or functional assay
Sequence of human µ-opioid receptor (hMOPr), human recombinant MOPr expressed in HEK-293 cells (human) (P35372 whole entry): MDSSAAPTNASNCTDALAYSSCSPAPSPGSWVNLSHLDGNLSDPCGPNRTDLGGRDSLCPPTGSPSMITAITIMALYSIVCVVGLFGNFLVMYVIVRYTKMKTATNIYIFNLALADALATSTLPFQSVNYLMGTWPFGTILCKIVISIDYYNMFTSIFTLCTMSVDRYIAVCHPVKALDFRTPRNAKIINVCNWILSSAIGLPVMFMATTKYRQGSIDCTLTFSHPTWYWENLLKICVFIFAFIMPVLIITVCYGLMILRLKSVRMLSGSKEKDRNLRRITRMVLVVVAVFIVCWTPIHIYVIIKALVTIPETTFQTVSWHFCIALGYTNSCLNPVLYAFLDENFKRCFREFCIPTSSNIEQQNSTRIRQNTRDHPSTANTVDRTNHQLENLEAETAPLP

MOPr [7] = target: T1, MOPr; test: Ser375 phosphorylation assay in AtT20 cells expressing MOPr; type: cell-based; set-up: expressed in transfected cells; settings: met-enkephalin defined as 100%
Procedure: Cells were serum starved for at least 30 min and then incubated in the absence or presence of the indicated ligand for 5-10 min at 37° C. Phosphorylation was terminated by fixing the cells with −30° C. methanol followed by 10 min incubation on ice. Cells were washed three times with phosphate buffered saline (PBS) and then heated in sodium citrate buffer (10 mM, 0.05% Tween 20, pH.6) for 20 min at 95° C. […] Imaging was performed as detailed below.
as §2

[8] = target: FLAG tagged mouse MOPr (mMOPr) stably expressed in AtT20 cells (mouse) (UniProt P42866); test: cell-based or functional assay
Sequence of FLAG tagged mouse MOPr (mMOPr) stably expressed in AtT20 cells (mouse) (P42866 whole entry): as the sequence (P42866 whole entry) above

[9] = target: MOPr C-terminally tagged with Rluc8 (MOPr-RLuc8), transfected in AtT20 cells; test: cell-based or functional assay
[10] = target: MOPr natively expressed by rat locus coeruleus (LC) neurons (rat, UniProt P33535 1-398); test: cell-based or functional assay
Sequence of MOPr natively expressed by rat locus coeruleus (LC) neurons (P33535 whole entry): as the sequence (P33535 whole entry) above

[11] = target: T4, human µ-opioid receptor (hMOPr), human recombinant MOPr expressed in HEK-293 cells (human, UniProt P35372 1-400); test: competition with [3H]DAMGO (0.5 nM), membranes with human recombinant MOPr (HEK-293), filtration and scintillation counting
T4 construct: whole, on cells; the cAMP assay used whole HEK cells expressing hMOPr
T4 sequence (P35372 whole entry): as the sequence (P35372 whole entry) above
Procedure: (§3) The specific ligand binding to the receptors is defined as the difference between the total binding and the nonspecific binding determined in the presence of an excess of an unlabelled opioid ligand (naloxone, 10 μM). The results are expressed as a percent of control specific binding ((measured specific binding/control specific binding)×100) obtained in the presence of unlabelled peptides of interest. The IC₅₀ values (concentration causing a half-maximal inhibition of control specific binding) and Hill coefficients (nH) were determined by non-linear regression analysis of the competition curves generated with mean replicate values using Hill equation curve fitting (Y=D+[(A−D)/(1+(C/C₅₀nH)], where Y=specific binding, D=minimum specific binding, A=maximum specific binding, C=compound concentration, C₅₀=IC₅₀, and nH=slope factor).

[12] = target: T4, human µ-opioid receptor (hMOPr), human …; test: competition with [3H]DAMGO at hMOPr
Procedure: as §3

[13] = target: T4, human µ-opioid receptor (hMOPr), human …; test: cell-based or functional assay

2,6-dimethyl-L-tyrosine-D-Val-L-Val-D-Phe-L-Ser(β-Lac)-NH2 ([Dmt][dV]V[dF]S(β‑Lac)-NH2; N-terminus assumed; SMILES Cc1cc(O)cc(C)c1C[C@H](N)C(=O)N[C@@H](C(=O)N[C@H](C(=O)N[C@H](Cc1ccccc1)C(=O)N[C@@H](CO[C@@H]1O[C@H](CO)[C@@H](O[C@@H]2O[C@H](CO)[C@H](O)[C@H](O)[C@H]2O)[C@H](O)[C@H]1O)C(N)=O)C(C)C)C(C)C) [peptide 3g]
analgesic activity after systemic administration (C57BL/6 mice; s.c., listed as Bilactorphin): dose-dependent analgesia; also recorded: equipotent with morphine | analgesic activity after systemic administration (C57BL/6 mice; s.c., listed as bilactorphin): potent analgesic | peak effect after i.v (C57BL/6 mice; hotplate, i.v): 88.9±11.8 % MPE | activity after oral administration (C57BL/6 mice; hotplate, oral gavage): active | ED50, hotplate, systemic administration s.c. (C57BL/6 mice; s.c.): 34 µmol/kg | agonist action in AtT20 cells (MOPr [1]): potent partial opioid agonist | potency compared with bilorphin in AtT20 cells (MOPr [1]): small loss of potency | internalization compared to bilorphin (MOPr [2]; 30 μM, after GRK2 overexpression): modest | β-arrestin recruitment compared to bilorphin (MOPr [3]): modest

CC(=O)N[C@@H](Cc1ccc(O)cc1)C(=O)N[C@@H](C(=O)N[C@H](C(=O)N[C@H](Cc1ccccc1)C(N)=O)C(C)C)C(C)C [3d, Aε-YvVf-NH2]
activity in LC neurons (MOPr [4]; 10-30 μM): inactive

COc1ccsc1CNCC[C@@]1(c2ccccn2)CCOC2(CCCC2)C1 [oliceridine]
internalisation signal in GRK2 positive cells (MOPr [2]): clear internalisation signals | GGIRK maximal response / intrinsic efficacy (mouse MOPr (mMOPr)): significantly less efficaciously than either morphine or bilorphin | GIRK (80% knockdown) Emax (mouse MOPr (mMOPr); AtT20 mMOPr cells after β-CNA, relative to somatostatin): 0.33 ± 0.01 | GIRK (80% knockdown) log(tau/KA) (mouse MOPr (mMOPr)): 7.2 ± 0.08 | Internalisation Emax (MOPr [5]; 30 min agonist, met-enkephalin defined as 100%): No activity

Cc1cc(O)cc(C)c1C[C@H](N)C(=O)N[C@@H](C(=O)N[C@H](C(=O)N[C@H](Cc1ccccc1)C(N)=O)C(C)C)C(C)C [peptide 3c, 2,6-dimethyl-L-tyrosine-D-Val-L-Val-D-Phe-NH2]
agonist action on GIRK current in LC neurons (MOPr [4]; compared with morphine): agonist with potency greater than morphine | peak effect after intrathecal injection (C57BL/6 mice; hotplate, 5 nmol/mouse intrathecal): 41±9 % MPE | nociception in the hotplate test, intravenous (C57BL/6 mice; i.v. 50 mg/kg, versus vehicle): failed to inhibit nociception | nociception in the hotplate test, subcutaneous (C57BL/6 mice; s.c. 100 mg/kg, versus vehicle): failed to inhibit nociception | agonist action in AtT20 cells (MOPr [1]): potent partial opioid agonist | internalisation signal in GRK2 positive cells (MOPr [2]): clear internalisation signals

DAMGO ([D-Ala^2, N-MePhe^4, Gly^5-ol]-enkephalin) (peptide)
% inhibition of forskolin-stimulate cAMP formation in hMOPr HEK cells (10 um) [6]: 94%

H-FVVF-NH2 (peptide)
% inhibition of forskolin-stimulate cAMP formation in hMOPr HEK cells (10 um) [6]: 19%

endomorphin-2
Phosphorylation Emax (MOPr [7]): 98 ± 2% | GIRK (80% knockdown) log(tau/KA) (mouse MOPr (mMOPr)): 7.5 ± 0.04 | β-arrestin 2 recruitment Emax (MOPr [3]; BRET): 100 ± 3 | β-arrestin 2 recruitment log(tau/KA) (MOPr [3]; operational model fit): 7.0 ± 0.06 | Internalisation Emax (MOPr [5]): 94 ± 3% | Internalisation log(tau/KA) (MOPr [5]): 6.2 ± 0.05 | MOPr internalisation (MOPr [5]): robust internalisation

endomorphin-2 (peptide)
GIRK (80% knockdown): Emax [8]: 0.64 | GIRK (80% knockdown): log(EC50) [8]: -6.9 | GIRK (80% knockdown): log(tau/KA) [8]: 7.5 | Internalisation of MOPr: Emax [8]: 94% | Internalisation of MOPr: log(EC50) [8]: -6.4 | Internalisation of MOPr: log(tau/KA) [8]: 6.2 | Phosphorylation (Ser375 of MOPr): Emax [8]: 98% | Phosphorylation (Ser375 of MOPr): log(EC50) [8]: -7.2 | Phosphorylation (Ser375 of MOPr): log(tau/KA) [8]: 7.2 | β-arrestin 2 recruitment (BRET): Emax [9]: 100 | β-arrestin 2 recruitment (BRET): log(EC50) [9]: -7 | β-arrestin 2 recruitment (BRET): log(tau/KA) [9]: 7

met-enkephalin
Phosphorylation Emax (MOPr [7]): 100* % | Internalisation Emax (MOPr [5]): 100* % | MOPr internalisation (MOPr [5]): robust internalisation

H-YVVF-NH2 [H-YVVF-NH2]
Agonist potency in LC neurons EC50 [10]: > 10000 nM

YVVF (D-Val at 2; D-Phe at 4; C-terminal amide, also called 3b; peptide 3b) [H-YvVf-NH2 (L-Tyr-D-Val-L-Val-D-Phe-NH2)]
Ki [11]: 93 nM | fold increase of affinity over Bilaid C (3a) [12]: 2 fold

FVVF (D-Val at 2; D-Phe at 4; C-terminal amide, also called 1e; peptide 1e) [H-FvVf-NH2 (L-Phe-D-Val-L-Val-D-Phe-NH2)]
% inhibition of forskolin-stimulate cAMP formation in hMOPr HEK cells (10 um) [13]: 47% | Ki [11]: 750 nM | fold improvement of affinity over Bilaid A (1a) [12]: 4 fold

H-YVVF-OH [H-YVVF-OH]
Agonist potency in LC neurons EC50 [10]: > 10000 nM

Ac-Y[dV]V[dF]-NH2 [Ac-YvVf-NH2]
Agonist potency in LC neurons EC50 [10]: > 10000 nM
